Our source for the IC50 values is patent publication US11078207B2, “Substituted pyrrolo[2,3-d]pyrimidines as HER2 inhibitors” (TAIHO PHARMACEUTICAL CO., LTD., priority 2019, dated 2021).

The target of experiment [1] is HER2 exon 20 insertion mutant (HER2ex20insYVMA, A775_G776insYVMA) (Homo sapiens, UniProt P04626, DUP772-775). Kind of experiment: Inhibitory action (in vitro) against HER2 exon 20 insertion mutant phosphorylation activity. The class given is biochemical. Particulars: 30 min pre-incubation, ATP 200 μM, 25° C. 220 minutes. The text has this: In order to determine conditions for a method of measuring the in vitro inhibitory activity of a compound against HER2 exon 20 insertion mutant phosphorylation activity, as in the case of HER2, ProfilerPro Peptide 22 was used as a substrate. A purified recombinant human HER2 exon 20 insertion mutant (A775_G776insYVMA) protein is shown in SEQ ID NO: 7, and was purchased from SignalChem. Upon the measurement of the inhibitory activity of the compound, first, the compound of the present invention was diluted stepwise with dimethyl sulfoxide (DMSO). Subsequently, the HER2 exon 20 insertion mutant protein and the compound of the present invention in DMSO solution (final concentration of DMSO: 5%) were added into a buffer for the kinase reaction (13.5 mM Tris (pH 7.5), 2 mM dithiothreitol, and 0.009% Tween 20), and the obtained mixture was then pre-incubated at 25° C. for 30 minutes. Thereafter, the substrate peptide (final concentration: 1 μM), manganese chloride (final concentration: 25 mM), magnesium chloride (final concentration: 20 mM), and ATP (final concentration: 200 μM) were added into the reaction mixture, and the thus obtained mixture was then incubated at 25° C. for 220 minutes, so that the kinase reaction was carried out. To the reaction solution, EDTA was added to a final concentration of 30 mM, so as to terminate the reaction. Finally, using LabChip (registered trademark) EZ Reader II (PerkinElmer), an unphosphorylated substrate peptide (S) and a phosphorylated peptide (P) were separated and detected according to microchannel capillary electrophoresis.
HER2 exon 20 insertion mutant (HER2ex20insYVMA, A775_G776insYVMA), sequence (P04626 with tags, fused parts or gaps DUP772-775): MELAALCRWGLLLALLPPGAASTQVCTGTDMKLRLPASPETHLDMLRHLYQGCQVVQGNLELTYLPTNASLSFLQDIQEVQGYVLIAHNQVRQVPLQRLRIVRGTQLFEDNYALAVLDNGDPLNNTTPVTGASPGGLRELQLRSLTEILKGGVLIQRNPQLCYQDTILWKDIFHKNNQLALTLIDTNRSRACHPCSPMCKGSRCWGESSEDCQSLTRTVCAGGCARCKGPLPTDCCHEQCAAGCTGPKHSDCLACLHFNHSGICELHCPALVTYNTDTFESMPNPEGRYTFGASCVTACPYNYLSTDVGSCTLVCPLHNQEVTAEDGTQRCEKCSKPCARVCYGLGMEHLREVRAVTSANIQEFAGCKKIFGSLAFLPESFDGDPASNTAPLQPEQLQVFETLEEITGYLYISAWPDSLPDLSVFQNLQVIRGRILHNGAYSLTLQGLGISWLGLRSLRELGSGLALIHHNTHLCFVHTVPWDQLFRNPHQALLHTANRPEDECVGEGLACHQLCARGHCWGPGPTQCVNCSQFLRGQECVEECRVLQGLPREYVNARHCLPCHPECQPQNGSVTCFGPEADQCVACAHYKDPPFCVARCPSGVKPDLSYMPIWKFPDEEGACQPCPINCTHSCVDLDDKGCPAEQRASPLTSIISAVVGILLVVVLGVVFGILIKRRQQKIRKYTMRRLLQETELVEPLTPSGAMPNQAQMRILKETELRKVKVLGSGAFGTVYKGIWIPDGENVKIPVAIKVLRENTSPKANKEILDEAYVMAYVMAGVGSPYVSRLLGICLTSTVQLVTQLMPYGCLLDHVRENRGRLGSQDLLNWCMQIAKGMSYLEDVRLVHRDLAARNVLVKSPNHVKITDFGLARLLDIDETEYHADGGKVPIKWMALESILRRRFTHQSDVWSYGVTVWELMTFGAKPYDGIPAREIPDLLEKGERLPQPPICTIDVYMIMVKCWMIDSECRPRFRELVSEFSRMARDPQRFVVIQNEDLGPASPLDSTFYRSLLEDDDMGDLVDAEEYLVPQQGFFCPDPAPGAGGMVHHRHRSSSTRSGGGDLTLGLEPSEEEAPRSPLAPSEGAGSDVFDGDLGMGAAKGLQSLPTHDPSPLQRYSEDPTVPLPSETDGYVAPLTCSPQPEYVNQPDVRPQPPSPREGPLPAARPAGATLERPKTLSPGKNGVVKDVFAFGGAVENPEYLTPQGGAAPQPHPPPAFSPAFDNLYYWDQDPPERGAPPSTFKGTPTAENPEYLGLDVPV

A further experiment concerns the target T1, HER2 (Homo sapiens, UniProt P04626).
T1 construct: purchased Carna Biosciences, Inc
Kind of experiment: Inhibitory effect (in vitro) on HER2 phosphorylation activity. In kind it is biochemical. To be noted: recombinant human HER2, ATP 5 μM, 25° C. 30 minutes. An excerpt: In order to determine conditions for a method of measuring the in vitro inhibitory activity of a compound against HER2 phosphorylation activity, based on the report regarding a HER2 kinase reaction using, as a substrate, a peptide having the same sequence (5-FAM-[…]-CONH2) as that of ProfilerPro Peptide 22 of PerkinElmer (Xie H et al., PLoS One. 2011; 6(7): e21487), ProfilerPro Peptide 22 was used as a substrate. A purified recombinant human HER2 protein used in the present test was purchased from Carna Biosciences, Inc. Upon the measurement of the inhibitory activity of the compound, first, the compound of the present invention was diluted stepwise with dimethyl sulfoxide (DMSO). […] To the reaction solution, EDTA was added to a final concentration of 30 mM, so as to terminate the reaction. Finally, using LabChip (registered trademark) EZ Reader II (PerkinElmer), an unphosphorylated substrate peptide (S) and a phosphorylated peptide (P) were separated and detected according to microchannel capillary electrophoresis.

The subject of the next experiment is SK-BR-3 cells. Kind of experiment: Growth inhibitory activity against HER2 expressing cell line SK-BR-3. In kind it is cell-based. To be noted: Homo sapiens, SK-BR-3, 72 h; 3 days, CellTiter-Glo 2.0. As to the method:
SK-BR-3 cells as a HER2 overexpressing human breast cancer cell line were suspended in a McCoy's 5a medium (manufactured by Life Technologies) supplemented with 10% fetal bovine serum. The cell suspension was seeded in each well of a 384-well flat-bottom microplate, and was then cultured in a 5% carbon dioxide gas-containing culture vessel at 37° C. for 1 day. Thereafter, the compound of the present invention was dissolved in DMSO, and the compound was diluted to 500 times the final concentration in DMSO. The compound in the DMSO solution was diluted with DMSO solution or the medium used in the suspension of the cells, and the obtained solution was then added to each well of the culture plate so that the final concentration of DMSO was 0.2%. The obtained mixture was further cultured in the 5% carbon dioxide gas-containing culture vessel at 37° C. for 3 days. After completion of the culture for 3 days in the presence of the compound, the cells were counted using CellTiter-Glo 2.0 (manufactured by Promega), and the growth inhibition percentage was then calculated according to the following equation. […] Growth inhibitory percentage (%)=(C−T)/(C)×100 T: Emission intensity from the well to which the test compound was added C: Emission intensity from the well to which the test compound was not added

The next experiment has as its system NCI-N87 cells. The experiment can be described thus: Growth inhibitory activity against HER2 expressing cell line NCI-N87. The class given is cell-based. To be noted: Homo sapiens, NCI-N87, 72 h; 3 days, CellTiter-Glo 2.0. As to the method:
NCI-N87 cells as a HER2 overexpressing human stomach cancer cell line (American Type Culture Collection, Cat No. ATCC (registered trademark) CRL-5822) were suspended in an RPMI640 medium (Wako Pure Chemical Industries, Ltd.) supplemented with 10% fetal bovine serum. Subsequently, the cell suspension was seeded in each well of a 96-well flat-bottom microplate, and was then cultured in a 5% carbon dioxide gas-containing culture vessel at 37° C. for 1 day. Thereafter, the compound of the present invention was dissolved in DMSO, and the compound was diluted to 1000 times the final concentration in DMSO. The compound in the DMSO solution was diluted with the medium used in the suspension of the cells, and the obtained solution was then added to each well of the culture plate, so that the final concentration of DMSO became 0.1%. Regarding a control well, DMSO was diluted with the medium used in the suspension of the cells, and the obtained solution was then added to each well of the culture plate, so that the final concentration of DMSO became 0.1%. After addition of a drug solution, the obtained mixture was further cultured in the 5% carbon dioxide gas-containing culture vessel at 37° C. for 3 days. After completion of the culture for 3 days in the presence of the compound, the cells were counted using CellTiter-Glo 2.0 (manufactured by Promega) in accordance with the protocols recommended by Promega. The growth inhibition percentage was calculated according to the following equation. […] Growth inhibitory percentage (%)=(C−T)/(C)×100 T: Emission intensity from the well to which the test compound was added C: Emission intensity from the well to which the test compound was not added

T1 sequence (P04626 23-1255): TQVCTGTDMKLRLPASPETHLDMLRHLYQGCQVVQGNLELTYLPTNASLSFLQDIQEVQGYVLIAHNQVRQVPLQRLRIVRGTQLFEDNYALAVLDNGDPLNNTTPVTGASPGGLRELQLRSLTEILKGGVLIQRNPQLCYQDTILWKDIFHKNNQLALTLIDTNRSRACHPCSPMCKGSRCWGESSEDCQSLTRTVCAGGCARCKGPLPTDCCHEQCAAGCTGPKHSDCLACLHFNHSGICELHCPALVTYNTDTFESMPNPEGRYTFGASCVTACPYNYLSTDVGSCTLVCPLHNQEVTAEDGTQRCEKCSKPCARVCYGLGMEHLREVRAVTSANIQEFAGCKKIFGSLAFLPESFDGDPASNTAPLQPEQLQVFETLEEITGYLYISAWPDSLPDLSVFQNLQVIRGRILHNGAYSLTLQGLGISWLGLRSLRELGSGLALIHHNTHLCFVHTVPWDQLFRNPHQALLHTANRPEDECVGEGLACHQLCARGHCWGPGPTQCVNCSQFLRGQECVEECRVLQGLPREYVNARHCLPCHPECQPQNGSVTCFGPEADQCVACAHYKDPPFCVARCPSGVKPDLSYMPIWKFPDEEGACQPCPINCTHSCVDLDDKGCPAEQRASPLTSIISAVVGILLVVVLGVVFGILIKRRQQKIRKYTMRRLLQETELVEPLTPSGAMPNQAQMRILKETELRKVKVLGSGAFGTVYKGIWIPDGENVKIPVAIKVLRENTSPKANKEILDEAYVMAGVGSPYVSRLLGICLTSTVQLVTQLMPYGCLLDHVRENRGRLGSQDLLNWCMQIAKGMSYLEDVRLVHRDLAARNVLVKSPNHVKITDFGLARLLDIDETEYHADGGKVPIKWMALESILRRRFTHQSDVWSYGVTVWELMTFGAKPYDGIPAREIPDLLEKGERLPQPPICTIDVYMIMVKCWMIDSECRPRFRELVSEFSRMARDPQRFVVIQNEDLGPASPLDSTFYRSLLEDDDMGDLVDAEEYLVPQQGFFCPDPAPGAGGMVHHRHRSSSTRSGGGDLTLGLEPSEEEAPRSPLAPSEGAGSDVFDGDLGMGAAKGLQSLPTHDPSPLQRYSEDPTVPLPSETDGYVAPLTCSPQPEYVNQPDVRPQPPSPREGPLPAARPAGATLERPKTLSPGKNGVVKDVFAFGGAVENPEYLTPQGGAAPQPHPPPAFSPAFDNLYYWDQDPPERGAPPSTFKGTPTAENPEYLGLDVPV

Take `C=CC(=O)N1C[C@H](n2c(C#CC)c(C(=O)N[C@H](C)c3cc(F)cc(F)c3)c3c(N)ncnc32)C[C@@H]1C` [Example 1, 7-(R)-((3R,5S)-1-acryloyl-5-methylpyrrolidin-3-yl)-4-amino-N—((R)-1-(3,5-difluorophenyl)ethyl)-6-(prop-1-yn-1-yl)-7H-pyrrolo[2,3-d]pyrimidine-5-carboxamide]: the IC50 was 0.34 nM in experiment [1], 2.7 nM on HER2, 9.3 nM in the experiment on SK-BR-3 cells and 10.7 nM in the experiment with NCI-N87 cells.
On to `C=CC(=O)N1C[C@H](n2c(C#CC)c(C(=O)N[C@H](C)c3ccccc3)c3c(N)ncnc32)C[C@@H]1C` [Example 2, 7-((3R,5S)-1-acryloyl-5-methylpyrrolidin-3-yl)-4-amino-N—((R)-1-phenylethyl)-6-(prop-1-yn-1-yl)-7H-pyrrolo[2,3-d]pyrimidine-5-carboxamide], for which the IC50 in experiment [1] is under 0.3 nM; at HER2 it was 2.5 nM; in the experiment with SK-BR-3 cells it was 2.8 nM; with NCI-N87 cells it was 3 nM.
With `C=CC(=O)N1C[C@H](n2c(C#CC)c(C(=O)NC(C)(C)c3ccccc3)c3c(N)ncnc32)C[C@@H]1C` [Example 3, 7-((3R,5S)-1-acryloyl-5-methylpyrrolidin-3-yl)-4-amino-N-(2-phenylpropan-2-yl)-6-(prop-1-yn-1-yl)-7H-pyrrolo[2,3-d]pyrimidine-5-carboxamide], the IC50 in experiment [1] is under 0.3 nM; at HER2 it was 5.8 nM; in the experiment with SK-BR-3 cells, 4.5 nM; with NCI-N87 cells it was 4.7 nM.
As to `C=CC(=O)N1C[C@H](n2c(C#CC)c(C(=O)N[C@H](CC)c3ccccc3)c3c(N)ncnc32)C[C@@H]1C` [Example 4, 7-((3R,5S)-1-acryloyl-5-methylpyrrolidin-3-yl)-4-amino-N—((R)-1-phenylpropyl)-6-(prop-1-yn-1-yl)-7H-pyrrolo[2,3-d]pyrimidine-5-carboxamide], the IC50 was determined as 0.37 nM in experiment [1], 3.9 nM at HER2, 5.6 nM in the experiment with SK-BR-3 cells and 5.6 nM in the experiment with NCI-N87 cells.
`C=CC(=O)N1C[C@H](n2c(C#CC)c(C(=O)NC(C)(C)c3ccccc3F)c3c(N)ncnc32)C[C@@H]1C` [Example 5, 7-((3R,5S)-1-acryloyl-5-methylpyrrolidin-3-yl)-4-amino-N-(2-(2-fluorophenyl)propan-2-yl)-6-(prop-1-yn-1-yl)-7H-pyrrolo[2,3-d]pyrimidine-5-carboxamide]: the IC50 in experiment [1] is 0.38 nM; at HER2 it was 7.7 nM; in the experiment on SK-BR-3 cells, 4 nM; in the experiment on NCI-N87 cells it was 7 nM.
On to `C=CC(=O)N1C[C@H](n2c(C#CC)c(C(=O)N[C@H](C)c3cccc(Cl)c3)c3c(N)ncnc32)C[C@@H]1C` [Example 6, 7-((3R,5S)-1-acryloyl-5-methylpyrrolidin-3-yl)-4-amino-N—((R)-1-(3-chlorophenyl)ethyl)-6-(prop-1-yn-1-yl)-7H-pyrrolo[2,3-d]pyrimidine-5-carboxamide], for which the IC50 was under 0.3 nM in experiment [1], 2.8 nM at HER2, 10 nM in the experiment on SK-BR-3 cells and 8.5 nM in the experiment with NCI-N87 cells.
Taken in the same sequence, the figures for `C=CC(=O)N1C[C@H](n2c(C#CC)c(C(=O)N[C@@H](c3ccccc3)C(F)(F)F)c3c(N)ncnc32)C[C@@H]1C` [Example 8, 7-((3R,5S)-1-acryloyl-5-methylpyrrolidin-3-yl)-4-amino-6-(prop-1-yn-1-yl)-N—((S)-2,2,2-trifluoro-1-phenylethyl)-7H-pyrrolo[2,3-d]pyrimidine-5-carboxamide] were under 0.3 nM, 10 nM, 14 nM and 9.7 nM.
Consider `C=CC(=O)N1C[C@H](n2c(C#CC3CC3)c(C(=O)NC(C)(C)c3ccccc3)c3c(N)ncnc32)C[C@@H]1C` [Example 9, 7-((3R,5S)-1-acryloyl-5-methylpyrrolidin-3-yl)-4-amino-6-(cyclopropylethynyl)-N-(2-phenylpropan-2-yl)-7H-pyrrolo[2,3-d]pyrimidine-5-carboxamide], for which the IC50 turned out to be 0.32 nM in experiment [1], 5.6 nM on HER2, 4.2 nM with SK-BR-3 cells and 6.2 nM in the experiment on NCI-N87 cells.
On to `C=CC(=O)N1C[C@H](n2c(C#CC3CC3)c(C(=O)N[C@H](C)c3cccc(F)c3F)c3c(N)ncnc32)C[C@@H]1C` [Example 10, 7-((3R,5S)-1-acryloyl-5-methylpyrrolidin-3-yl)-4-amino-6-(cyclopropylethynyl)-N—((R)-1-(2,3-difluorophenyl)ethyl)-7H-pyrrolo[2,3-d]pyrimidine-5-carboxamide], for which the IC50 in experiment [1] is under 0.3 nM; on HER2, 2.2 nM; in the experiment with SK-BR-3 cells it was 13 nM; in the experiment with NCI-N87 cells, 10.5 nM.
For `C=CC(=O)N1C[C@H](n2c(C#CC3CC3)c(C(=O)N[C@H](C)c3ccccc3)c3c(N)ncnc32)C[C@@H]1C` [Example 11, 7-((3R,5S)-1-acryloyl-5-methylpyrrolidin-3-yl)-4-amino-6-(cyclopropylethynyl)-N—((R)-1-phenylethyl)-7H-pyrrolo[2,3-d]pyrimidine-5-carboxamide], in that order: under 0.3 nM, 3.2 nM, 6.6 nM and 9.9 nM.
Consider `C=CC(=O)N1C[C@H](n2c(C#CC(C)(C)C)c(C(=O)N[C@H](C)c3ccccc3)c3c(N)ncnc32)C[C@@H]1C` [Example 12, 7-((3R,5S)-1-acryloyl-5-methylpyrrolidin-3-yl)-4-amino-6-(3,3-dimethylbut-1-yn-1-yl)-N—((R)-1-phenylethyl)-7H-pyrrolo[2,3-d]pyrimidine-5-carboxamide], for which the IC50 was 0.39 nM in experiment [1], 3.4 nM at HER2, 17 nM with SK-BR-3 cells and 15 nM with NCI-N87 cells.
In the case of `C=CC(=O)N1C[C@H](n2c(C#CC(C)(C)OC)c(C(=O)N[C@H](C)c3ccccc3)c3c(N)ncnc32)C[C@@H]1C` [Example 13, 7-((3R,5S)-1-acryloyl-5-methylpyrrolidin-3-yl)-4-amino-6-(3-methoxy-3-methylbut-1-yn-1-yl)-N—((R)-1-phenylethyl)-7H-pyrrolo[2,3-d]pyrimidine-5-carboxamide], the IC50 in experiment [1] turned out to be 0.44 nM; on HER2, 5.2 nM; in the experiment on SK-BR-3 cells it was 14 nM; in the experiment with NCI-N87 cells it was 11.7 nM.
